Test results as given in ChEMBL document CHEMBL1201862, “PubChem BioAssay data set” (2004).
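Tested at 5 concentrations; 48 h exposure; 96-well plates; endpoints linearly interpolated, else capped at highest concentration. GI50 marks 50% less growth.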 Calls of active or inactive are those of the source. Rule as the data show it: active = GI50 up to about 1.1 µM and inactive = higher.

Experiments:
Assay in all cases: NCI tumour cell line growth inhibition, 48 h
NCI-H522 = system: NCI-H522
TK-10 = system: TK-10
DMS-273 = system: DMS-273
786-0 = system: 786-0
UACC-257 = system: UACC-257
LXFL 529 = system: LXFL 529
A498 = system: A498
OVCAR-3 = system: OVCAR-3
HOP-18 = system: HOP-18
EKVX = system: EKVX
SF-295 = system: SF-295
HT-29 = system: HT-29
SNB-19 = system: SNB-19
HCC 2998 = system: HCC 2998
M14 = system: M14
OVCAR-5 = system: OVCAR-5
RXF 393 = system: RXF 393
OVCAR-4 = system: OVCAR-4
SW-620 = system: SW-620
LOX IMVI = system: LOX IMVI
IGROV-1 = system: IGROV-1
MOLT-4 = system: MOLT-4
NCI-H23 = system: NCI-H23
SNB-78 = system: SNB-78
XF498 = system: XF498
KM-20L2 = system: KM-20L2
DMS-114 = system: DMS-114
KM12 = system: KM12
SK-MEL-28 = system: SK-MEL-28
Malme-3M = system: Malme-3M
K562 = system: K562
CCRF-CEM = system: CCRF-CEM
UO-31 = system: UO-31
SF-539 = system: SF-539
SNB-75 = system: SNB-75
NCI-H226 = system: NCI-H226
M19-MEL = system: M19-MEL
HOP-92 = system: HOP-92
U-251 = system: U-251
CAKI-1 = system: CAKI-1
HL-60 = system: HL-60
HOP-62 = system: HOP-62
HCT-15 = system: HCT-15
HCT-116 = system: HCT-116
SK-OV-3 = system: SK-OV-3
DLD-1 = system: DLD-1
SK-MEL-5 = system: SK-MEL-5
SK-MEL-2 = system: SK-MEL-2
NCI-H460 = system: NCI-H460
ACHN = system: ACHN
OVCAR-8 = system: OVCAR-8
SN12C = system: SN12C
SF-268 = system: SF-268
UACC-62 = system: UACC-62

Compound: C#CCNC(=O)N(CC#C)N=O
- GI50 (NCI-H522): 19.5 µM (inactive)
- GI50 (TK-10): > 100 µM (inactive)
- GI50 (DMS-273): > 100 µM (inactive)
- GI50 (786-0): > 100 µM (inactive)
- GI50 (UACC-257): > 100 µM (inactive)
- GI50 (LXFL 529): > 100 µM (inactive)
- GI50 (A498): > 100 µM (inactive)
- GI50 (OVCAR-3): > 100 µM (inactive)
- GI50 (HOP-18): > 100 µM (inactive)
- GI50 (EKVX): > 100 µM (inactive)
- GI50 (SF-295): > 100 µM (inactive)
- GI50 (HT-29): > 100 µM (inactive)
- GI50 (SNB-19): > 100 µM (inactive)
- GI50 (HCC 2998): > 100 µM (inactive)
- GI50 (M14): > 100 µM (inactive)
- GI50 (OVCAR-5): > 100 µM (inactive)
- GI50 (RXF 393): > 100 µM (inactive)
- GI50 (OVCAR-4): > 100 µM (inactive)
- GI50 (SW-620): > 100 µM (inactive)
- GI50 (LOX IMVI): 38.6 µM (inactive)
- GI50 (IGROV-1): > 100 µM (inactive)
- GI50 (MOLT-4): 31 µM (inactive)
- GI50 (NCI-H23): > 100 µM (inactive)
- GI50 (SNB-78): > 100 µM (inactive)
- GI50 (XF498): > 100 µM (inactive)
- GI50 (KM-20L2): > 100 µM (inactive)
- GI50 (DMS-114): > 100 µM (inactive)
- GI50 (KM12): > 100 µM (inactive)
- GI50 (SK-MEL-28): > 100 µM (inactive)
- GI50 (Malme-3M): > 100 µM (inactive)
- GI50 (K562): 24.8 µM (inactive)
- GI50 (CCRF-CEM): 37.9 µM (inactive)
- GI50 (UO-31): > 100 µM (inactive)
- GI50 (SF-539): > 100 µM (inactive)
- GI50 (SNB-75): > 100 µM (inactive)
- GI50 (NCI-H226): > 100 µM (inactive)
- GI50 (M19-MEL): > 100 µM (inactive)
- GI50 (HOP-92): > 100 µM (inactive)
- GI50 (U-251): > 100 µM (inactive)
- GI50 (CAKI-1): > 100 µM (inactive)
- GI50 (HL-60): 25.3 µM (inactive)
- GI50 (HOP-62): > 100 µM (inactive)
- GI50 (HCT-15): > 100 µM
- GI50 (HCT-116): > 100 µM (inactive)
- GI50 (SK-OV-3): > 100 µM (inactive)
- GI50 (DLD-1): > 100 µM (inactive)
- GI50 (SK-MEL-5): > 100 µM (inactive)
- GI50 (SK-MEL-2): > 100 µM (inactive)
- GI50 (NCI-H460): > 100 µM (inactive)
- GI50 (ACHN): > 100 µM (inactive)
- GI50 (OVCAR-8): > 100 µM (inactive)
- GI50 (SN12C): > 100 µM (inactive)
- GI50 (SF-268): > 100 µM (inactive)
- GI50 (UACC-62): > 100 µM (inactive)
